Reference: paper PMC9495854, “Novel Phenothiazine/Donepezil-like Hybrids Endowed with Antioxidant Activity for a Multi-Target Approach to the Therapy of Alzheimer’s Disease” (Antioxidants, 2022)

How the values were obtained:
Aβ1-40 aggregation = molecular target: T1, Aβ1-40 aggregation (Homo sapiens, UniProt P05067); assay: Inhibition of Aβ40 aggregation, ThT fluorescence; format: biochemical; conditions: inhibitor 10 µM, Aβ40 30 µM, PBS pH 7.4, 2% HFIP, 2 h 25 °C, mean ± SEM; for inhibition at 10 µM: read-out: Aβ1-40 Aggregation (I% at 10 µM)
T1 construct: purchased EZBiolab
T1 sequence (P05067 672-711 limits assumed): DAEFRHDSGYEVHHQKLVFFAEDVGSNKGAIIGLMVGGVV
Experimental: ThT fluorescence in the presence of Aβ was measured for each compound according a previously described procedure. The samples were co-incubated and mixed in 96-well black, non-binding microplates (Greiner Bio-One GmbH, Frickenhausen, Germany), incubating Aβ40 (EZBiolab, Carmel, IN, USA) at a final concentration of 30 µM with each inhibitors at a final concentration of 10 µM in PBS (pH 7.4) containing 2% 1,1,1,3,3,3-hexafluoro-2-propanol (HFIP). After 2 h at 25 °C, a 25 µM ThT solution was added and fluorescence was determined using the multi-plate reader Tecan Infinite M1000 Pro (Tecan, Cernusco S.N., Italy). The results are reported as mean of three independent experiments ± SEM [13].

FAAH Human recombinant = molecular target: T2, FAAH Human recombinant (Homo sapiens, UniProt O00519); assay: FAAH inhibition, fluorometric assay; format: biochemical; conditions: mean ± SEM; read-out: hFAAH (IC50)
T2 construct: purchased Cayman Chemical
T2 sequence (O00519 1-579): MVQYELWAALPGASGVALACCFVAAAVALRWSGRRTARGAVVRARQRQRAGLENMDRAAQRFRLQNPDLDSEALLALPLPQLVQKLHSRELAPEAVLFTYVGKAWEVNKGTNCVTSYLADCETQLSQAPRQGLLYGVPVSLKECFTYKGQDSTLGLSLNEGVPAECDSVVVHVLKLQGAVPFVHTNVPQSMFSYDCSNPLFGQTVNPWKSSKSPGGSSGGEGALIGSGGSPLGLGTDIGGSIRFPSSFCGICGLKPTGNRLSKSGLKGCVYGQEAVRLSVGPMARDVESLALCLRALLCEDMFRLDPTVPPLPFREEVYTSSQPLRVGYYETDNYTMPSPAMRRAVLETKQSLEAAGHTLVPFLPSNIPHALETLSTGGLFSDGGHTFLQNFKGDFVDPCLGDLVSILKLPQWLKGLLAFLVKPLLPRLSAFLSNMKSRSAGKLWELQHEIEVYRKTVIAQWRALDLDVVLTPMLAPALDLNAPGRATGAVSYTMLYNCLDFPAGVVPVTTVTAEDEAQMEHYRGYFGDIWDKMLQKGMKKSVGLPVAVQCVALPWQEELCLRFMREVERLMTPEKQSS
Experimental: The fatty acid amide hydrolase inhibition was measured for the final compounds using 96-well black flat-bottom microtiter NBS plates (COSTAR flat black). The total volume was 150 µL: the single hybrid was pre-incubated at different concentrations with the enzyme (FAAH Human recombinant, Cayman Chemical, Ann Arbor, MI, USA) in the specific fluorometric assay buffer (tris-HCl 125 mM, Na2EDTA · 2H2O 1 mM, pH = 9.0) for ten minutes at RT, using an orbital shaker. A 50 μL solution of the substrate (7-amino-4-methyl-2H-1-benzopyran-2-one-5Z,8Z,11Z,14Z-eicosatetraen-amide, at a final concentration of 5 µM) was then added. The plates were then incubated for 1 h at 37 °C in a Tecan Infinite M1000 Pro (Tecan, Cernusco S.N., Italy), reading fluorescence values from each well every 30s (λex = 340 nm, λem = 450 nm). The inhibitor activity was expressed as relative fluorescence units (RFU), using the values obtained from control wells lacking the inhibitor and blank wells lacking both inhibitor and enzyme to calculate percent inhibition values for each well. IC50 values are expressed as mean ± SEM of at least two independent measurements performed in triplicate.

[1] = MTT cell viability assay, SH-SY5Y; format: cell-based; conditions: human, SH-SY5Y cells, SHSY-5Y; for IC50 at 1 h: 1 h exposure; for IC50 at 24 h: 24 h exposure, read-out: MTT cytotoxicity IC50 ± SEM SHSY-5Y 24 h
Experimental: (§1) Human hepatocellular liver carcinoma (HepG2) cell line and human neuroblastoma cell line, SH-SY5Y, were purchased from the American Type Culture Collection (ATCC, Manassas, VA, USA) and maintained at 37 °C in a humidified atmosphere (95% air and 5% carbon dioxide), and they were periodically screened for contamination. HepG2 cells were cultured in Eagle’s Minimum Essential Medium (MEM, Euroclone S.p.A., Pero, MI, Italy), supplemented with 10% Fetal Bovine Serum (FBS, Euroclone S.p.A., Pero, MI, Italy), 1% L-glutamine (Euroclone S.p.A., Pero, MI, Italy), 100 U/mL penicillin/streptomycin (Euroclone S.p.A., Pero, MI, Italy), 1% Non-Essential Amino Acids (NEAA, Euroclone S.p.A., Pero, MI, Italy). SH-SY5Y cells were grown in a 1:1 mixture of Dulbecco’s modified Eagle’s medium (DMEM)—high glucose (Euroclone S.p.A., Pero, MI, Italy) and Ham’s F12 Medium (Euroclone S.p.A., Pero, MI, Italy) supplemented with 10% FBS, 1% L-glutamine and 100 U/mL penicillin/streptomycin. For cell assays, cells were trypsinized using Trypsin-EDTA 1X in PBS (Euroclone S.p.A., Pero, MI, Italy).
(§2) HepG2 and SH-SY5Y cell viability was assessed as previously reported by using a conventional 3-(4,5-dimethylthiazol-2-yl)-2,5-diphenyltetrazolium bromide (MTT) assay. In brief, viable cells were seeded and grown for 24 h into a sterile 96-well cell culture cluster (Corning, Sigma-Aldrich, St. Louis, MO, USA) in a complete medium and maintained at 37 °C in a humidified atmosphere with 5% CO2. The cells were then added with different concentrations of each compound for a period of 1 h or 24 h. At the end, the culture medium was replaced by a solution of 0.5 mg/mL MTT (Sigma-Aldrich, St. Louis, MO, USA) in PBS. After 2 h of incubation at 37 °C in 5% CO2, the supernatant was carefully removed from each well, and the formazan crystals were dissolved in DMSO. The absorbance values were measured at 570 nm using Tecan Infinite M1000 Pro (Tecan, Cernusco S.N., Italy) and DMSO medium as blank solution. The results were reported as % cell viability = [optical density (OD) of tested compound/medium OD of control cells] × 100. The results are expressed as mean ± SEM of at least three independent measurements in triplicate.

SH-SY5Y cells = assay: MTT cell viability assay, SH-SY5Y; format: cell-based; conditions: 24 h exposure
Experimental: as §1, §2

SMILES | inhibition at 10 µM (Aβ1-40 aggregation) | IC50 (FAAH Human recombinant) | IC50 at 1 h [1] | IC50 at 24 h [1] | MTT cytotoxicity IC50 ± SEM SHSY-5Y 24 h (SH-SY5Y cells) | Aβ1-40 Aggregation (I% at 10 µM) (Aβ1-40 aggregation)
O=C(NCC1CCN(Cc2ccccc2)CC1)c1ccc2c(c1)Nc1ccccc1S2 [Compound 11a, N-((1-Benzylpiperidin-4-yl)methyl)-10H-phenothiazine-2-carboxamide] | 8% | 22.6 ± 1.6 µM | > 100 µM | > 100 µM |  | 
O=C(NCC1CCN(Cc2ccccc2Cl)CC1)c1ccc2c(c1)Nc1ccccc1S2 [Compound 11b, N-((1-(2-Chlorobenzyl)piperidin-4-yl)methyl)-10H-phenothiazine-2-carboxamide] | 20% | 3.8 ± 0.9 µM | > 100 µM | 21.2 ± 1 µM |  | 
Cc1ccccc1CN1CCC(CNC(=O)c2ccc3c(c2)Nc2ccccc2S3)CC1 [Compound 11c, N-((1-(2-Methylbenzyl)piperidin-4-yl)methyl)-10H-phenothiazine-2-carboxamide] | 47% | 3.08 ± 0.44 µM | > 100 µM | 15.2 ± 1.2 µM |  | 
O=C(NCC1CCN(Cc2ccccc2F)CC1)c1ccc2c(c1)Nc1ccccc1S2 [Compound 11d, N-((1-(2-Fluorobenzyl)piperidin-4-yl)methyl)-10H-phenothiazine-2-carboxamide] | 43% | 5.06 ± 0.4 µM | > 100 µM | 9.33 ± 0.86 µM |  | 
COc1cccc(CN2CCC(CNC(=O)c3ccc4c(c3)Nc3ccccc3S4)CC2)c1 [Compound 11e, N-((1-(3-Methoxybenzyl)piperidin-4-yl)methyl)-10H-phenothiazine-2-carboxamide] | 24% | 13 ± 3.4 µM | > 100 µM | 29 ± 1.1 µM |  | 
O=C(NCCN1CCN(Cc2ccccc2)CC1)c1ccc2c(c1)Nc1ccccc1S2 [Compound 12a, N-(2-(4-Benzylpiperazin-1-yl)ethyl)-10H-phenothiazine-2-carboxamide] | 43% | 41.4 ± 0.9 µM | > 100 µM | > 100 µM |  | 
O=C(NCCN1CCN(Cc2ccccc2Cl)CC1)c1ccc2c(c1)Nc1ccccc1S2 [Compound 12b, N-(2-(4-(2-Chlorobenzyl)piperazin-1-yl)ethyl)-10H-phenothiazine-2-carboxamide] | 27% | 6.31 ± 1.28 µM | > 100 µM | 31.8 ± 2 µM |  | 
Cc1ccccc1CN1CCN(CCNC(=O)c2ccc3c(c2)Nc2ccccc2S3)CC1 [Compound 12c, N-(2-(4-(2-Methylbenzyl)piperazin-1-yl)ethyl)-10H-phenothiazine-2-carboxamide] |  | 7.33 ± 0.86 µM | > 100 µM | > 100 µM |  | 
O=C(NCCN1CCN(Cc2ccccc2F)CC1)c1ccc2c(c1)Nc1ccccc1S2 [Compound 12d, N-(2-(4-(2-Fluorobenzyl)piperazin-1-yl)ethyl)-10H-phenothiazine-2-carboxamide] | 60% | 9.65 ± 2.45 µM | > 100 µM | > 100 µM | no cytotoxic effects | 
CC(=O)N1c2ccccc2Sc2ccc(C(=O)NCCN3CCN(Cc4ccccc4Cl)CC3)cc21 [Compound 13, 10-Acetyl-N-(2-(4-(2-chlorobenzyl)piperazin-1-yl)ethyl)-10H-phenothiazine-2-carboxamide] |  | 16.9 ± 4.4 µM | > 100 µM | 55.3 ± 1.22 µM |  | lack of activity
